In patent US20120202794A1 (priority 2011, published 2012):

Assays:
HCV Replicon 1b = experiment: HCV inhibition assay, HCV replicon 1b (Clone A or ET-lunet cells; RT-PCR or luciferase reporter); assay type: cell-based; settings: Hepatitis C virus, 96 h, HCV replicon 1b; 4 days incubation; read-out: Replicon 1b potency EC90
Experimental: HCV inhibition assay. Clone A or ET-lunet cells were seeded at a density of 1500 or 3000 cells per well in a 96-well plate, respectively. Test compounds serially diluted in culture medium without G418 were added to cells so that the final DMSO concentration was 0.5%. Plates were incubated at 37° C. in a 5% CO2 atmosphere for 4 days. Inhibition of HCV RNA replication was determined by real time PCR (RT-PCR) or by measuring the levels of luminescence expressed via the luciferase reporter gene encoded within the ET replicon. Briefly, for the RT-PCR assay, total RNA was extracted using the RNeasy-96 kit as recommended by the manufacturer (Qiagen, Valencia, Calif.), reversed transcribed into cDNA, and amplified using primer and probe mix for HCV 5′-NTR RNA and human ribosomal RNA (rRNA) in a one-step RT-PCR reaction as described previously (50). A relative quantification method was used to determine the extent of inhibition. The threshold cycle (Ct) of rRNA was subtracted from the Ct of HCV RNA (ΔCt). The average ΔCt of the DMSO cell controls was then subtracted from the ΔCt of the compound treated sample (ΔΔCt). Percent inhibition was determined by using the following equation: %=(1−(2^−ΔΔC^t))×100. For the luciferase-based replicon assay, luminescence was measured by using a Victor3 plate reader (Perkin-Elmer, Boston, Mass.) following the addition of Bright-Glo reagent as recommended by the manufacturer (Promega, Madison, Wis.). Percent inhibition of HCV replication was determined by comparing the change in luminescence of the drug treated wells versus the DMSO cell controls. EC50 and EC90 values, the concentrations at which 50% and 90% inhibition were achieved, were determined using the GraphPad Prism software (San Diego, Calif.).

[1] = Cell cytotoxicity assay (MTS), CC90 as reported in Table 1, cell line not stated; assay type: cell-based; settings: human, cell line not given
Experimental: Cell cytotoxicity assays. Each compound (serially diluted from 100 μM) was added to Huh7 (2×10^3 cells/well), HepG2 (2×10^3 cells/well), BxPC3 (2×10^3 cells/well), or CEM (5×10^3 cells/well) cells and allowed to incubate for 8 days at 37° C. A medium only control was used to determine the minimum absorbance value […]. At the end of the growth period, MTS dye from the CellTiter 96 Aqueous One Solution Cell Proliferation Assay kit (Promega) was added to each well and the plate was incubated for an additional 2 hours. The absorbance at 490 nm was read with a Victor3 plate reader (Perkin Elmer) using the medium only control wells as blanks. The 90% inhibition value (CC90) was determined by comparing the absorbance in wells containing cells and test compound to untreated cell control wells.

Row | Compound | EC90 (HCV Replicon 1b) [µM] | CC90 at 8 days ([1]; MTS assay, 8 days incubation) [µM] | CC90 at 8 days [1] [µM]
1 | CSCCC1C(=O)N[C@@H](c2ccccc2)CN1C(=O)c1cc(-c2ccc(F)cc2)on1 (stereo in doubt) [Compound 458, (3R,6S)-4-(5-(4-fluorophenyl)isoxazole-3-carbonyl)-3-((methylthio)ethyl)-6-phenylpiperazin-2-one] | 2.07 | > 10 | 
2 | CC(C)C[C@H]1C(=O)NC(c2ccccc2)N1C(=O)[C@H]1C[C@@H]1c1ccccc1 (stereo in doubt) [Compound 531, (2R,5S)-5-isobutyl-2-phenyl-1-((1S,2S)-2-phenylcyclopropanecarbonyl)imidazolidin-4-one] | > 10 | > 10 | 
3 | CC(C)C[C@H]1C(=O)NC(c2ccccc2)N1C(=O)[C@H]1C[C@@H]1c1ccc(F)cc1 (stereo in doubt) [Compound 533, (2R,5S)-1-((1S,2S)-2-(4-fluorophenyl)cyclopropane-carbonyl)-5-isobutyl-2-phenyl-imidazolidin-4-one] | > 10 | > 10 | 
4 | CC(C)C[C@H]1CN(C(=O)[C@@H]2C[C@H]2c2ccccc2)[C@@H](CC(C)C)C(=O)N1 [Compound 70] | 0.8 |  | > 10
5 | CC(C)C[C@H]1CN(C(=O)/C=C/c2ccc(Cl)cc2)[C@@H](CC(C)C)C(=O)N1 [Compound 72] | 2.5 |  | > 10
6 | CC(C)C[C@H]1CN(C(=O)/C=C/c2ccc(C(F)(F)F)cc2)[C@@H](CC(C)C)C(=O)N1 [Compound 73] | 3.34 |  | > 10
7 | CC(C)C[C@H]1CN(C(=O)/C=C/c2cccnc2)[C@@H](CC(C)C)C(=O)N1 [Compound 74] | > 10 |  | > 10
8 | C/C(=C\C(=O)N1C[C@H](CC(C)C)NC(=O)[C@@H]1CC(C)C)c1ccccc1 [Compound 75] | > 10 |  | > 10
9 | CC(C)C[C@H]1CN(C(=O)c2cc3ccccc3o2)[C@@H](CC(C)C)C(=O)N1 [Compound 76] | 9.18 |  | > 10
10 | CC(C)C[C@H]1CN(C(=O)/C=C/c2ccccc2)[C@@H](CC(C)C)C(=O)N1 [Compound 77] | 3.24 |  | > 10
11 | C/C(=C\c1ccccc1)C(=O)N1C[C@H](CC(C)C)NC(=O)[C@@H]1CC(C)C [Compound 78] | 9.93 |  | > 10
12 | Cc1ccc(/C=C/C(=O)N2C[C@H](CC(C)C)NC(=O)[C@@H]2CC(C)C)cc1 [Compound 79] | 5.29 |  | > 10
13 | CC(C)C[C@H]1CN(C(=O)/C=C/c2ccc(F)cc2)[C@@H](CC(C)C)C(=O)N1 [Compound 80] | 2.49 |  | > 10
14 | CC(C)C[C@H]1CN(C(=O)/C=C/c2ccc(Cl)c(Cl)c2)[C@@H](CC(C)C)C(=O)N1 [Compound 81] | 7.31 |  | > 10
15 | CC(C)C[C@H]1CN(C(=O)/C=C/c2ccc(F)c(F)c2)[C@@H](CC(C)C)C(=O)N1 [Compound 82] | 1.22 |  | > 10
16 | CC(C)C[C@H]1CN(C(=O)/C=C/c2cccc(F)c2)[C@@H](CC(C)C)C(=O)N1 [Compound 83] | 2.91 |  | > 10
17 | CC(C)C[C@H]1CN(C(=O)/C=C/c2cc(F)c(F)c(F)c2)[C@@H](CC(C)C)C(=O)N1 [Compound 84] | 2.64 |  | > 10
18 | CC(C)C[C@H]1CN(C(=O)/C=C/c2ccc(F)c(Cl)c2)[C@@H](CC(C)C)C(=O)N1 [Compound 85] | 8.65 |  | > 10
19 | CC(C)C[C@H]1CN(C(=O)/C=C/c2ccc(Cl)cc2F)[C@@H](CC(C)C)C(=O)N1 [Compound 86] | 0.59 |  | > 10
20 | CC(C)C[C@H]1CN(C(=O)/C=C/c2ccc(F)cc2F)[C@@H](CC(C)C)C(=O)N1 [Compound 87] | 0.57 |  | > 10
21 | Cc1cccc(C)c1NC(=O)CN1C[C@H](CC(C)C)NC(=O)[C@@H]1CC(C)C [Compound 88] | > 10 |  | > 10
22 | CC(C)C[C@H]1CN(C(=O)c2ccc(Oc3ccccc3)cc2)[C@@H](CC(C)C)C(=O)N1 [Compound 89] | 6.88 |  | > 10
23 | CC(C)C[C@H]1CN(C(=O)/C=C/c2ccc3c(c2)OCO3)[C@@H](CC(C)C)C(=O)N1 [Compound 90] | 7.72 |  | > 10
24 | CC(C)C[C@H]1CN(C(=O)/C=C/c2ccc([N+](=O)[O-])cc2)[C@@H](CC(C)C)C(=O)N1 [Compound 91] | > 10 |  | > 10

Row | Compound | EC90 (HCV Replicon 1b) [µM] | CC90 at 8 days ([1]; MTS assay, 8 days incubation) [µM] | CC90 at 8 days [1] [µM]
25 | CC(C)C[C@H]1CN(C(=O)/C=C/c2ccc(S(C)(=O)=O)cc2)[C@@H](CC(C)C)C(=O)N1 [Compound 92] | > 10 |  | > 10
26 | CC(C)C[C@H]1CN(C(=O)/C=C/c2ccc(C(F)(F)F)cc2F)[C@@H](CC(C)C)C(=O)N1 [Compound 93] | 9.62 |  | > 10
27 | CC(C)C[C@H]1CN(C(=O)/C=C/c2ccc(-c3ccccc3)cc2)[C@@H](CC(C)C)C(=O)N1 [Compound 94] | 8.37 |  | > 10
28 | CC(C)C[C@H]1CN(C(=O)/C=C/c2cc(F)cc(F)c2)[C@@H](CC(C)C)C(=O)N1 [Compound 95] | 9.31 |  | > 10
29 | CCC[C@H]1CN(C(=O)/C=C/c2ccc(F)cc2F)[C@@H](CC(C)C)C(=O)N1 [Compound 96] | 1.11 |  | > 10
30 | CC(C)C[C@H]1CN(C(=O)c2ccc(-c3ccccc3)o2)[C@@H](CC(C)C)C(=O)N1 [Compound 97] | 7.28 |  | > 10
31 | CC(C)C[C@H]1CN(C(=O)c2csc(-c3ccccc3)n2)[C@@H](CC(C)C)C(=O)N1 [Compound 98] | 7.92 |  | > 10
32 | CC(C)C[C@H]1CN(C(=O)c2coc(-c3ccccc3)n2)[C@@H](CC(C)C)C(=O)N1 [Compound 99] | > 10 |  | > 10
33 | CC(C)C[C@H]1CN(C(=O)c2cc(-c3ccccc3)[nH]n2)[C@@H](CC(C)C)C(=O)N1 [Compound 100] | > 10 |  | > 10
34 | CC(C)C[C@H]1CN(C(=O)c2c[nH]c(-c3ccccc3)n2)[C@@H](CC(C)C)C(=O)N1 [Compound 101] | > 10 |  | > 10
35 | CC(C)C[C@H]1CN(C(=O)c2cn(-c3ccccc3)cn2)[C@@H](CC(C)C)C(=O)N1 [Compound 102] | > 10 |  | > 10
36 | CC(C)C[C@H]1CN(C(=O)c2cn(-c3ccc(F)cc3)cn2)[C@@H](CC(C)C)C(=O)N1 [Compound 103] | 8.64 |  | > 10
37 | CC(C)C[C@H]1CN(C(=O)c2cnn(-c3ccc(F)cc3)c2)[C@@H](CC(C)C)C(=O)N1 [Compound 104] | 4.74 |  | > 10
38 | CC(C)C[C@H]1CN(C(=O)c2cc(-c3ccc(Cl)cc3)ns2)[C@@H](CC(C)C)C(=O)N1 [Compound 105] | 1.49 |  | > 10
39 | CC(C)C[C@H]1CN(C(=O)c2cc(C3CC3)on2)[C@@H](CC(C)C)C(=O)N1 [Compound 106] | 8.77 |  | > 10
40 | CCc1cc(C(=O)N2C[C@H](CC(C)C)NC(=O)[C@@H]2CC(C)C)no1 [Compound 107] | 8.41 |  | > 10
41 | CC(C)C[C@H]1CN(C(=O)c2cc(-c3ccccc3)on2)[C@@H](CC(C)C)C(=O)N1 [Compound 108] | 0.52 |  | > 10
42 | CC(C)C[C@H]1CN(C(=O)c2cc(-c3cccs3)on2)[C@@H](CC(C)C)C(=O)N1 [Compound 109] | 0.54 |  | > 10
43 | CC(C)C[C@H]1C(=O)N[C@@H](c2ccccc2)CN1C(=O)c1cc(-c2cccs2)on1 [Compound 110] | 0.59 |  | > 10
44 | CC(C)C[C@H]1C(=O)N[C@@H](C(C)C)CN1C(=O)c1cc(-c2cccs2)on1 [Compound 111] | 0.8 |  | > 10
45 | CC(C)C[C@H]1CN(C(=O)c2cc(-c3ccc(Cl)s3)on2)[C@@H](CC(C)C)C(=O)N1 [Compound 112] | 0.95 |  | > 10
46 | CC(C)C[C@H]1CN(C(=O)C#Cc2ccc(F)cc2)[C@@H](CC(C)C)C(=O)N1 [Compound 113] | 3.4 |  | > 10
47 | CC(C)C[C@H]1C(=O)N[C@@H](C2CCCC2)CN1C(=O)[C@@H]1C[C@H]1c1ccc(Br)cc1 [Compound 332, (3S,6S)-6-cyclopentyl-4-((1R,2R)-2-(4-bromophenyl)cyclopropanecarbonyl)-3-isobutylpiperazin-2-one] | 1.31 |  | 
